Bridge positions count the residues as written; N and C are the ends. Peptide text beside a SMILES is read from it.
Columns and labels:
Set-up in all cases: PSA was purified from human seminal fluid as described previously (3); from tissue; host or cells: human seminal fluid
PSA [1] = molecular target: T1, PSA (Homo sapiens, UniProt P07288); assay: GST-peptide IFMA: binding of GST-peptides to PSA captured by MAb 5E4; conditions: for binding to PSA in GST-peptide IFMA (in words): GST fusion proteins; for Maximal binding (CPS): GST-peptide fusion proteins, Eu-labelled anti GST antibody as tracer
Experimental: After washing the binding of GST-peptide was quantified by IFMA using an Eu-labelled anti GST antibody as tracer. Data represent mean values from duplicate wells ±standard error (SE).
The solid phase antibodies used in the IFMAs were coated onto microtitration wells at a concentration of 5 μg/mL in TBS for 16 h at 22° C., the solution was discarded and the wells were saturated with 10 g/L bovine serum albumin in TBS for 3 h at 22° C. The antibodies used as tracers were labeled with a Eu^3+ chelate as described previously (26). The assay buffer was 50 mM Tris-HCL, pH 7.7, 150 mM NaCl, 33.3 μM bovine serum albumin, 1 μM bovine globulin.
The binding of individual phage clones to PSA was tested by IFMA (phage IFMA). In the phage IFMA, about 30 ng of PSA was added to MAb 5E4 coated wells for 1 h. After washing (Buffer: 150 mM NaCl, 7.7 mM NaN3, 0.2 g/L Tween 20), 15 μL of phage and 200 μl assay buffer was added. After incubation for 1 h, the wells were washed and filled with 200 μl of assay buffer containing 50 ng europium-labeled anti phage monoclonal antibody recognizing the M13 coat protein of the phage. After incubation for 60 min, the wells were washed 4 times, and enhancement solution (EG&G-Wallac) was added. The fluorescence was quantified with a 1234 DELFIA Research fluorometer (EG&G-Wallac). Binding of GST-peptide to PSA was determined by an IFMA (GST-peptide IFMA) similar to the one for phage peptides except that Eu^3+-labeled antibody to GST was used. Various amounts of GST-peptide or wild type GST were added to wells containing captured PSA in 200 μL of assay buffer and incubated for 1 h. To test the effect of Zn^2+ on the binding between GST-peptide and PSA, various concentrations of Zn^2+ (1-200 μM) were added to the buffer in the incubation step of GST-peptide and PSA. In competition experiments, GST-peptide (167 nM) or wild type GST were first incubated with increasing amounts of PSA (0-333 nM) in 0.5% BSA-TBS buffer for 60 min, then added to wells containing PSA captured by MAb 5E4. After incubation for 1 h the wells were washed and Eu^3+-labeled anti GST antibody was added. After further incubation and washing the bound fluorescence was measured as described above. When assessing the binding of the GST-peptides to other proteinases, including chymotrypsin, cathepsin G, trypsin, and kallikrein, these proteinases were captured by their specific antibodies coated to the microtitration well. Recombinant hK2 was captured by MAb 5E4, which is known to bind hK2 (24). For assessing the binding of the GST-peptides with complexes of PSA, including PSA-ACT and PSA-α1-protease inhibitor (PSA-API) (28), the complexes were captured by antibodies against ACT and API, respectively. After capturing the various proteinases or PSA complexes, GST-peptide was added and binding was monitored as described above for the GST-peptide IFMA.

PSA [2] = molecular target: T1, PSA; assay: Enzyme activity of PSA with chromogenic substrate S-2586; assay type: biochemical; conditions: GST-peptides, S-2586; for minimum peptide concentration affecting the activity: PSA enzyme activity
Experimental: The enzyme activity of PSA was studied in the presence of peptides alone or together with Zn^2+ by using the chymotrypsin substrate S-2586 (MeO-Suc-Arg-Pro-Tyr-pNA) (Chromogenix, Mölndal, Sweden). […] PSA (333 nM) was incubated with a 1-100-fold molar excess of GST-peptide or 100-fold excess of synthetic peptide in TBS buffer, pH 7.8 containing 0.5 g/L BSA for 1 h at 22° C. The effect of Zn^2+ on the enzyme activity of PSA was studied by including 1-200 μM of ZnCl2 in the reaction buffer. The combined effect of peptides and Zn2+ on the enzyme activity of PSA was studied by incubating PSA (333 nM) with peptide (333 nM) in the buffer containing 1-200 μM Zn^2+ for 1 h. After addition of substrate to a final concentration 0.2 mM, the absorbance was monitored at 5-min intervals for 2 h at 405 nm on a Labsystems Multiskan MCC/340 photometer (Labsystems, Helsinki, Finland). As a control, the effect of wild type GST on the enzyme activity of PSA was tested.
In the experiments, PSA (0.33 μM) was incubated with increasing concentrations of GST-C-4 (0-100-fold molar excess) for 1 h, after which the chromogenic substrate S-2586 was added and enzyme activity was monitored by measuring the absorbance at 405 nm. Data represent mean values from duplicate wells ±SE.
PSA (0.33 μM) was incubated with chemically synthesized peptides (100-fold molar excess) for 1 h, after which the chromogenic substrate S-2586 was added and enzyme activity was monitored by measuring the absorbance at 405 nm.
Because zinc is known to inhibit the enzyme activity of PSA, we further characterized the effect of GST-peptides on the enzyme activity of PSA by assessing the combined effect of peptides and Zn^2+. […] The effect of GST-C-4 and Zn^2+ on enzyme activity was determined by incubating PSA (0.33 μM) with the same molar concentration of GST-C-4 and various concentrations of Zn^2+. The reaction was monitored by measuring absorbance at 405 nm after addition of the chromogenic substrate S-2586. […] Data represent mean values from duplicate wells ±SE.
(§1) Data represent mean values from duplicate wells ±SE.
As control the enzyme activity of PSA alone was measured.
as §1
20 μg of the peptide was iodinated by the Iodogen method. After iodination the peptide was purified by using C18 Sep-Pak column.

PSA [3] = molecular target: T1, PSA; assay: PSA activity measurements with modified peptides, substrate S-2586 (Example 5); assay type: biochemical; conditions: ratio of OD 405 nm of PSA-peptide to PSA alone after 60 minutes; ratio > 1.1 interpreted as active
Experimental: PSA activity measurements: The effect of different peptides on the activity of PSA was studied by using chymotrypsin substrate S-2586 (MeO-Suc-Arg-Pro-Tyr-pNA) (Chromogenix, Mölndal, Sweden). 77 pmoles (2 μg) of PSA, substrate and 10 μmoles of different peptides were incubated in Tris-buffer (10 mM Tris and 150 mM NaCl at pH 7.8) with 0.2 mM concentration of the substrate at room temperature. PSA reaction without any peptide was used as basic level control. Reaction was measured after 60 minutes incubation at […] using Multiscan RC photometer (Labsystems, Finland). The effect of the peptides was calculated as a ratio from the OD value of PSA-peptide complex to PSA alone after 60 minutes incubation.

T1 sequence (P07288 25-261): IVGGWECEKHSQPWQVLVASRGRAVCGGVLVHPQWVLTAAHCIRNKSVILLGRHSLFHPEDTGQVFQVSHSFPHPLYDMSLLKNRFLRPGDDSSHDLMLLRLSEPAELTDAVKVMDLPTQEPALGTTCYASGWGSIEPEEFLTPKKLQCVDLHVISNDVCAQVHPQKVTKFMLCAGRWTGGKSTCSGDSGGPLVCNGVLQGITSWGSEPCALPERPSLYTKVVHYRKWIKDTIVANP

binding to PSA in GST-peptide IFMA (in words) (PSA [1]) | Maximal binding (CPS) (PSA [1]) | minimum peptide concentration affecting the activity (PSA [2]) [nM] | PSA-peptide/PSA ratio (PSA [3]) | Compound | EC50 (PSA [2]; PSA 0.33 μM, read-out: 50% stimulation (μM): peptide concentration required for half maximal stimulation of the enzyme activity of PSA) [µM]
less efficiently than C-4 | 219000 | 300 | 2.3 | CVFTSDYAFC [Peptide A-1] | 2.2
less efficiently than C-4 | 428000 | 300 | 3.0 | CC(C)C[C@@H]1NC(=O)[C@H](Cc2ccc(O)cc2)NC(=O)[C@H](CC(=O)O)NC(=O)[C@H](Cc2ccc(O)cc2)NC(=O)[C@H](CC(N)=O)NC(=O)[C@H](Cc2c[nH]cn2)NC(=O)[C@H](C)NC(=O)[C@H](Cc2ccccc2)NC(=O)[C@H](C(C)C)NC(=O)[C@@H](N)CSSC[C@@H](C(=O)O)NC(=O)[C@H](C(C)C)NC1=O [Peptide B-2] (H-CVFAHNYDYLVC-OH; disulfide 1-12; N-terminus assumed) | 

From US7414023B2, “Peptide ligands for prostate specific antigen” (Licentia Ltd., priority 2000, dated 2008)
